# Laboratory results taken from US20250213735A1, “NEUROPEPTIDE Y1 RECEPTOR (NPY1R) TARGETED THERAPEUTICS AND USES THEREOF” (Radionetics Oncology, Inc., priority 2023, published 2025).
# Molecular target: hNPY1R (Homo sapiens (Human), UniProt P25929)
# Assay: NPY1R binding assay (SK-N-MC membrane, [125I]-Peptide YY competition);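 also: bound radioligand separated by filtration over GF/C filter plates and counted, Ki obtained by non-linear regression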
# Details: crude SK-N-MC membranes endogenously expressing NPY1R; [125I]-Peptide YY (human) 0.05 nM; 120 min at room temperature; read-out: hNPY1R binding Ki
# Experimental: Crude membrane fractions are prepared from SK-N-MC cells endogenously expressing the NPY1R receptor. The cells are grown to 85-100% confluence on standard tissue culture dishes in Eagle's Minimum Essential Medium supplemented with 10% dialyzed FBS. To prepare membranes, cells are scraped and collected in 1× Dulbecco's phosphate buffered saline and then pelleted at 1000 RPM's. The cell pellet is reconstituted in membrane preparation buffer (20 mM HEPES, 6 mM MgCl2 and 1 mM EGTA, protease inhibitor tablets, pH 7.4) and placed in a cell disruption vessel at 1000 PSI for 30 minutes on ice. The pressurized contents are then released and spun down at 1000 RPMs and the supernatant is collected and further centrifuged at 15,000 RPMs to pellet the membranes. The membrane pellet is resuspended in membrane preparation buffer, snap frozen and stored at −80° C. for later use.
# Assay contents are then filtered through unifilter GF/C microplates and washed with 9×400 μl of cold wash buffer (25 mM HEPES, 5 mM MgCl2, 1 mM CaCl2), 500 mM NaCl, 0.1% Tween-20, pH 7.4). Assay plates are read using a Top Count NXT and Ki values for compounds are determined using a GraphPad Prism 6 non-linear regression analysis.
# Sequence of hNPY1R (P25929 whole entry): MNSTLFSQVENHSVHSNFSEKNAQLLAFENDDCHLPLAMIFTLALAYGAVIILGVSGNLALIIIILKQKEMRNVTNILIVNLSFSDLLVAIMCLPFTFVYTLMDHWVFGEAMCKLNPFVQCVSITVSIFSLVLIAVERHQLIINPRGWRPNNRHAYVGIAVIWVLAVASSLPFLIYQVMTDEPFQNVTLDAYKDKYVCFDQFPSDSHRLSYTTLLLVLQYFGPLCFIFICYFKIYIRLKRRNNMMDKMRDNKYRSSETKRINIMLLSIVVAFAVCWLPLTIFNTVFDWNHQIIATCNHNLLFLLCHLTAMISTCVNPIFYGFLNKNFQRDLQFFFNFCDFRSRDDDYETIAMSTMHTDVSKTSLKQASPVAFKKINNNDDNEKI
row,Ki [nM],Structure (SMILES)
1,< 10,"CCC(=O)NCCNC(=O)/N=C(/N)NCCC[C@@H](NC(=O)[C@H](c1ccc(OCCCNC(=O)CN2CCN(CC(=O)O)CCN(CC(=O)O)CCN(CC(=O)O)CC2)cc1)N1Cc2ccccc2C1)C(=O)NCc1ccc(O)cc1 [compound 59, 2,2′,2″-(10-(2-((3-(4-((1S,4R,Z)-9-amino-4-((4-hydroxybenzyl)carbamoyl)-1-(isoindolin-2-yl)-2,11,16-trioxo-3,8,10,12,15-pentaazaoctadec-9-en-1-yl)phenoxy)propyl)amino)-2-oxoethyl)-1,4,7,10-tetraazacyclododecane-1,4,7-triyl)triacetic acid]"
2,< 10,"CCC(=O)NCCNC(=O)/N=C(/N)NCCC[C@@H](NC(=O)C(c1ccccc1)N1Cc2ccccc2C1)C(=O)NCc1ccc(O)cc1 (stereo partly drawn) [compound 60, (2R)—N-(4-hydroxybenzyl)-2-(2-(isoindolin-2-yl)-2-phenylacetamido)-5-((Z)-2-((2-propionamidoethyl)carbamoyl)guanidino)pentanamide]"
3,< 10,"CCC(=O)NCCNC(=O)/N=C(/N)NCCC[C@@H](NC(=O)[C@H](c1cccc(NCCCN)c1)N1Cc2ccccc2C1)C(=O)NCc1ccc(O)cc1 [compound 63, (R)-2-((S)-2-(3-((3-aminopropyl)amino)phenyl)-2-(isoindolin-2-yl)acetamido)-N-(4-hydroxybenzyl)-5-((Z)-2-((2-propionamidoethyl)carbamoyl)guanidino)pentanamide]"
4,< 10,"CCNC(=O)/N=C(/N)NCCC[C@@H](NC(=O)[C@H](c1ccccc1)N1Cc2cccc(NCCCN)c2C1)C(=O)NCc1c(F)cc(O)cc1F [compound 65, (R)-2-((S)-2-(4-((3-aminopropyl)amino)isoindolin-2-yl)-2-phenylacetamido)-N-(2,6-difluoro-4-hydroxybenzyl)-5-((Z)-2-(ethylcarbamoyl)guanidino)pentanamide]"
5,10 to 100,"N=C(N)NCCC[C@@H](NC(=O)C(c1ccccc1)N1Cc2ccccc2C1)C(=O)NCc1ccc(O)cc1 (stereo partly drawn) [compound 68, (2R)-5-guanidino-N-(4-hydroxybenzyl)-2-(2-(isoindolin-2-yl)-2-phenylacetamido)pentanamide]"
6,< 10,"N=C(N)NCCC[C@@H](NC(=O)[C@H](c1ccccc1)N1Cc2ccccc2C1)C(=O)NCc1c(F)cc(O)cc1F [compound 69, (R)—N-(2,6-difluoro-4-hydroxybenzyl)-5-guanidino-2-((S)-2-(isoindolin-2-yl)-2-phenylacetamido)pentanamide]"
7,10 to 100,"N=C(N)NCCC[C@@H](NC(=O)[C@H](c1ccccc1)N1Cc2ccccc2C1)C(=O)NCc1ccc(O)cc1 [compound 70, (R)-5-guanidino-N-(4-hydroxybenzyl)-2-((S)-2-(isoindolin-2-yl)-2-phenylacetamido)pentanamide]"
8,100 to 1000,"N=C(N)NCCC[C@@H](NC(=O)C(c1ccccc1)N1CCCCC1)C(=O)NCc1ccc(O)cc1 (stereo partly drawn) [compound 72, (2R)-5-guanidino-N-(4-hydroxybenzyl)-2-(2-phenyl-2-(piperidin-1-yl)acetamido)pentanamide]"
9,100 to 1000,"N=C(N)NCCC[C@@H](NC(=O)C(c1ccccc1)N1CCC(C(F)(F)F)CC1)C(=O)NCc1ccc(O)cc1 (stereo partly drawn) [compound 73, (2R)-5-guanidino-N-(4-hydroxybenzyl)-2-(2-phenyl-2-(4-(trifluoromethyl)piperidin-1-yl)acetamido)pentanamide]"
10,100 to 1000,"CC1(C)CCN(C(C(=O)N[C@H](CCCNC(=N)N)C(=O)NCc2ccc(O)cc2)c2ccccc2)CC1 (stereo partly drawn) [compound 74, (2R)-2-(2-(4,4-dimethylpiperidin-1-yl)-2-phenylacetamido)-5-guanidino-N-(4-hydroxybenzyl)pentanamide]"
11,100 to 1000,"CC1(C)CCCN(C(C(=O)N[C@H](CCCNC(=N)N)C(=O)NCc2ccc(O)cc2)c2ccccc2)C1 (stereo partly drawn) [compound 75, (2R)-2-(2-(3,3-dimethylpiperidin-1-yl)-2-phenylacetamido)-5-guanidino-N-(4-hydroxybenzyl)pentanamide]"
12,> 1000,"N=C(N)NCCC[C@@H](NC(=O)C(c1ccccc1)N1CCN(c2ccccc2)CC1)C(=O)NCc1ccc(O)cc1 (stereo partly drawn) [compound 76, (2R)-5-guanidino-N-(4-hydroxybenzyl)-2-(2-phenyl-2-(4-phenylpiperazin-1-yl)acetamido)pentanamide]"
13,10 to 100,"CC(C)C1CCN(C(C(=O)N[C@H](CCCNC(=N)N)C(=O)NCc2ccc(O)cc2)c2ccccc2)CC1 (stereo partly drawn) [compound 77, (2R)-5-guanidino-N-(4-hydroxybenzyl)-2-(2-(4-isopropylpiperidin-1-yl)-2-phenylacetamido)pentanamide]"
14,100 to 1000,"CCCC1CCN([C@H](C(=O)N[C@H](CCCNC(=N)N)C(=O)NCc2ccc(O)cc2)c2ccccc2)CC1 [compound 78, (R)-5-guanidino-N-(4-hydroxybenzyl)-2-((S)-2-phenyl-2-(4-propylpiperidin-1-yl)acetamido)pentanamide]"
15,10 to 100,"CCC1CCN(C(C(=O)N[C@H](CCCNC(=N)N)C(=O)NCc2ccc(O)cc2)c2ccccc2)CC1 (stereo partly drawn) [compound 79, (2R)-2-(2-(4-ethylpiperidin-1-yl)-2-phenylacetamido)-5-guanidino-N-(4-hydroxybenzyl)pentanamide]"
16,10 to 100,"CC(C)(C)C1CCN(C(C(=O)N[C@H](CCCNC(=N)N)C(=O)NCc2ccc(O)cc2)c2ccccc2)CC1 (stereo partly drawn) [compound 80, (2R)-2-(2-(4-(tert-butyl)piperidin-1-yl)-2-phenylacetamido)-5-guanidino-N-(4-hydroxybenzyl)pentanamide]"
17,100 to 1000,"N=C(N)NCCC[C@@H](NC(=O)C(c1ccccc1)N1CCC(C2CC2)CC1)C(=O)NCc1ccc(O)cc1 (stereo partly drawn) [compound 81, (2R)-2-(2-(4-cyclopropylpiperidin-1-yl)-2-phenylacetamido)-5-guanidino-N-(4-hydroxybenzyl)pentanamide]"
18,100 to 1000,"CC(C)CC1CCN(C(C(=O)N[C@H](CCCNC(=N)N)C(=O)NCc2ccc(O)cc2)c2ccccc2)CC1 (stereo partly drawn) [compound 82, (2R)-5-guanidino-N-(4-hydroxybenzyl)-2-(2-(4-isobutylpiperidin-1-yl)-2-phenylacetamido)pentanamide]"
19,100 to 1000,"N=C(N)NCCC[C@@H](NC(=O)C(c1ccccc1)N1CCC2(CCCC2)CC1)C(=O)NCc1ccc(O)cc1 (stereo partly drawn) [compound 84, (2R)-5-guanidino-N-(4-hydroxybenzyl)-2-(2-phenyl-2-(8-azaspiro[4.5]decan-8-yl)acetamido)pentanamide]"
20,10 to 100,"N=C(N)NCCC[C@@H](NC(=O)C(c1ccccc1)N1CCC2(CC1)CC2)C(=O)NCc1ccc(O)cc1 (stereo partly drawn) [compound 85, (2R)-5-guanidino-N-(4-hydroxybenzyl)-2-(2-phenyl-2-(6-azaspiro[2.5]octan-6-yl)acetamido)pentanamide]"
21,100 to 1000,"N=C(N)NCCC[C@@H](NC(=O)C(c1ccccc1)N1CCC(c2ccccc2)CC1)C(=O)NCc1ccc(O)cc1 (stereo partly drawn) [compound 86, (2R)-5-guanidino-N-(4-hydroxybenzyl)-2-(2-phenyl-2-(4-phenylpiperidin-1-yl)acetamido)pentanamide]"
22,100 to 1000,"N=C(N)NCCC[C@@H](NC(=O)C(c1ccccc1)N1CCC2(CCCCC2)CC1)C(=O)NCc1ccc(O)cc1 (stereo partly drawn) [compound 87, (2R)-5-guanidino-N-(4-hydroxybenzyl)-2-(2-phenyl-2-(3-azaspiro[5.5]undecan-3-yl)acetamido)pentanamide]"
23,10 to 100,"N=C(N)NCCC[C@@H](NC(=O)C(c1ccccc1)N1CCC2(CCC2)CC1)C(=O)NCc1ccc(O)cc1 (stereo partly drawn) [compound 89, (2R)-5-guanidino-N-(4-hydroxybenzyl)-2-(2-phenyl-2-(7-azaspiro[3.5]nonan-7-yl)acetamido)pentanamide]"
24,100 to 1000,"N=C(N)NCCC[C@@H](NC(=O)C(c1ccccc1)N1CCC2(CC1)CC(F)(F)C2)C(=O)NCc1ccc(O)cc1 (stereo partly drawn) [compound 90, (2R)-2-(2-(2,2-difluoro-7-azaspiro[3.5]nonan-7-yl)-2-phenylacetamido)-5-guanidino-N-(4-hydroxybenzyl)pentanamide]"
25,< 10,"CCNC(=O)/N=C(/N)NCCC[C@@H](NC(=O)C(c1ccccc1)N1CCC(C(C)(C)C)CC1)C(=O)NCc1c(F)cc(O)cc1F (stereo partly drawn) [compound 92, (2R)-2-(2-(4-(tert-butyl)piperidin-1-yl)-2-phenylacetamido)-N-(2,6-difluoro-4-hydroxybenzyl)-5-((Z)-2-(ethylcarbamoyl)guanidino)pentanamide]"

row,Structure (SMILES),Ki [nM]
1,"CCNC(=O)/N=C(/N)NCCC[C@@H](NC(=O)C(c1ccccc1)N1Cc2ccccc2C1)C(=O)NCc1c(F)cc(O)cc1F (stereo partly drawn) [compound 67, (2R)—N-(2,6-difluoro-4-hydroxybenzyl)-5-((Z)-2-(ethylcarbamoyl)guanidino)-2-(2-(isoindolin-2-yl)-2-phenylacetamido)pentanamide]",< 10
2,"N=C(N)NCCC[C@@H](NC(=O)C(c1ccccc1)N1CCC(C2CCCCC2)CC1)C(=O)NCc1ccc(O)cc1 (stereo partly drawn) [compound 83, (2R)-2-(2-(4-cyclohexylpiperidin-1-yl)-2-phenylacetamido)-5-guanidino-N-(4-hydroxybenzyl)pentanamide]",> 1000
3,"CCNC(=O)/N=C(/N)NCCC[C@@H](NC(=O)C(c1ccccc1)N1CCC(C(C)(C)C)CC1)C(=O)NCc1ccc(O)cc1 (stereo partly drawn) [compound 91, (2R)-2-(2-(4-(tert-butyl)piperidin-1-yl)-2-phenylacetamido)-5-((Z)-2-(ethylcarbamoyl)guanidino)-N-(4-hydroxybenzyl)pentanamide]",< 10
